Patent US20110034466A1, “NOVEL FIVE-MEMBERED RING COMPOUND” (priority 2008, published 2011)

Key:
rat lung membrane SMBS = test: Receptor-binding assessment test using rat lung membranes ([125I]-iodocyanopindolol ligand binding assay); details: 1 μM test compound; ratio of inhibiting specific binding of [125I]-iodocyanopindolol to rat lung membrane SMBS
Method: Receptor-Binding Assessment Test of Compounds Using Rat Lung Membranes
The assessment test was carried out according to the method of Sugasawa, T. et al., J. Biol. Chem., 272, 21244-21252 (1997).
Preparation of Rat Lung Membranes
Lung taken out from SD male rat (7-week old under test, Charles River Laboratories Japan, Inc.) was removed trachea and blood vessels to shred and washed with iced tris-saline buffer (10 mM tris hydrochloric acid-154 mM sodium chloride, pH7.4). The resultant was homogenized by Hiscotron with ice-cold tris-saline buffer containing a homogenization buffer (1 mM ethylenediaminetetraacetic acid (EDTA), 1 mM 4-(2-aminoethyl)benzenesulfonyl fluoride (AEBSF), 5 μg/ml aprotinin, 5 μg/ml leupeptine) (maximum rate: 1 minute). The supernatant after low-speed centrifugation (1500×g, 20 minutes, 4° C.) was ultracentrifuged (100000×g, 20 minutes, 4° C.), and the pellet was suspended in tris-saline buffer to store at −80° C. The protein concentrations were determined by Bio-Rad Protein Assay Kit using bovine serum albumin (BSA) as a standard.
To each well in protein-nonabsorptive round-bottom 96-well assay plate (commercially available from Iwaki Glass Co., Ltd.) were added tris-saline buffer (200 μl) containing 1 nM [^125I]-iodocyanopindolol (commercially available from Amersham plc), 10 μM serotonine, 20 μm dl-propranolol, 10 μM phentolamine, 1.1 mM ascorbic acid and 100 μg lung membrane, and the mixture was pipetted to combine and then incubated at 37° C. for 30 minutes. The test compounds were dissolved in 100% dimethyl sulfoxide solution, and thereto was added 2 μl (final DMSO concentration: 1%). In order to calculate nonspecific binding amounts, to the mixture was added L-threo-3-(3,4-dihydroxyphenyl)-N-[3-(4-fluorophenyl)propyl]serine pyrrolidine amide at 100 μM of the final concentration as an alternative to the test compounds. During this time, 100 μl of 0.3% polyethyleneimine (PEI)/tris-saline buffer was added to MultiScreen plate (96-well B glass fiber, Millipore Cat. No. MAFB NOB10), and incubated for over 30 minutes. The resultant was filtered with aspiration (aspiration by the addition of 200 μl iced tris-saline buffer) to wash, and the reaction solutions on 96-well assay plate were filtered with aspiration to wash four times on MultiScreen plate. B glass fiber filter paper at the bottom of MultiScreen plate was punched out, and γ-ray doses of [^125I]-iodocyanopindolol trapped on the filter paper were determined as binding amounts. The binding amounts in the presence of DMSO (final concentration: 1%) were total binding amounts, and the binding amounts in the presence of 100 μM L-threo-3-(3,4-dihydroxyphenyl)-N-[3-(4-fluorophenyl)propyl]serine pyrrolidine amide were nonspecific binding amounts. The values subtracted the nonspecific binding amounts from the total binding amounts were the specific binding amounts. The binding activity of a compound was calculated according to the following formula, which was shown in the ratio of inhibiting the specific binding of [^125I]-iodocyanopindolol to rat lung membrane SMBS by the test compound.

[1] = test system: Corticosterone generation; test: Assessment test of steroid hormone synthesis inhibition (Corticosterone generation in rat adrenal gland cells); format: cell-based; details: 10 μM test article, rat adrenal cells with cAMP, 2 hours, read-out: Steroid Synthesis Inhibition Rate (%) (10 μM)
Source text: Assessment Test of Steroid Hormone Synthesis Inhibition
• Cell Strainer (BD Falcon®) • Cell Titer-Glo® (Promega) • Collagenase from Clostridium histolyticum (Sigma-Aldrich) • Corticosterone EIA kit (Cayman) • Dimethylsulfoxide (referred to as DMSO hereinafter) (nacalai tesque) • D-MEM (GIBCO) • DNase I (Invitrogen) • Fetal Bovine Serums (referred to as FBS hereinafter) (Bioflud) • Multiple well plates for adhesive cell culture, 96 wells (IWAKI) • N^6,2′-O-Dibutyryladenosine 3′,5′-cyclic monophosphate sodium salt (referred to as cAMP hereinafter) (Sigma) • Penicillin Streptomycin Mixed Solution (nacalai tesque)
Control examples 1 to 4: Control example 1 was Example 350 of Patent Document 2. Control examples 2 to 4 were synthesized according to Patent Document 2.
Adrenal glands were taken out from rats, and removed excess connective tissues, adiposes and membranes in D-MEM. The adrenal glands were transferred to polytubes, and quickly segmentalized with scissors. Thereto was added D-MEM containing 1 mg/mL collagenase and 0.25 μL DNase 1, and then the mixture was shaken at 37° C. for 10 minutes in 80 times/minute. Then, the mixture was pipetted by 1 mL truncated pipette tip, and shaken again under the same condition. After 10 minutes, the mixture was pipetted again by 1 mL pipette tip, and the cell suspension was filtered through metal mesh. The filtrate was centrifuged at 4° C. for 5 minutes in 500 g. The supernatant was removed, and thereto was added a mixed solution of 0.16 M NH4Cl and 0.17 M Tris-HCl in 3 mL. The mixture was let stand on ice for 5 minutes, and then centrifuged under the same condition. Then, the supernatant was removed and then thereto was added D-MEM. The cell suspension was prepared and centrifuged under the same condition. Again, the supernatant was removed and then thereto was added D-MEM to give a cell suspension. The cell suspension was filtered by Cell Strainer (BD Falcon®). The filtrate was centrifuged under the same condition. After the completion of the centrifugation, the supernatant was removed, and thereto was added D-MEM containing 1% Penicillin Streptomycin Mixed Solution and 10% FBS. The mixture was seeded in Multiple well plate for adhesive cell culture, 96 wells (IWAKI) in 10000 cells/well, and incubated at 37° C. overnight in CO2 incubator.
Test article concentrations were prepared in DMSO to 2000 μM, and D-MEM containing 20 μM test article in D-MEM was prepared.
Cell-seeded plate was incubated overnight, and then the medium was removed and thereto was added D-MEM containing 20 μM test article in 50 μL/well. Then, to the mixture was promptly added D-MEM containing 20 μM cAMP in 50 μL/well so that the final concentration of the test article was 10 μM. After the addition of 2 types of D-MEM, the mixture was incubated at 37° C. for 2 hours in CO2 incubator. After 2 hours, the supernatant (50 μL) of the medium was collected. For cells, the cell toxicity of the test article was assessed according to a conventional method using Cell Titer-Glo® (Promega). For the collected supernatant, the Corticosterone concentration in the supernatant was determined according to a conventional method using Corticosterone EIA kit (Cayman).
The inhibition rate of 10 μM test article to Corticosterone generation was calculated according to the following formula confirming that the cell toxicity by the test article was not recognized.

[2] = test system: Guinea pig late asthma model; test: Guinea pig late asthma model (ovalbumin sensitized, respiratory function sRaw/TV); format: in vivo; details: 3 mg/kg orally one hour before antigen challenge
Method: Assessment of Compounds in Guinea Pig Late Asthma Model
The assessment was carried out using a compound obtained in Example 52.
Hartley male guinea pigs (commercially available from Japan SLC, Inc.) were pre-bred about 1 week after arrival, and then exposed by inhalation to 2% (w/v) ovalbumin (OA) saline in a plastic box (4 guniea pigs/box) for 5 minutes using a ultrasonic nebulizer (OMRON NE-U12, condition: maximum nebulizing amounts, maximum air volume), and sensitized (day 0). The same operation was carried out on day 7. On day 14 or 15, each guinea pig was administered 2% OA by inhalation for 5 minutes to initiate a response (challenge). […]
A determination and analysis of respiratory function were carried out according to the method of Penny A. Hutson et al. Am Rev Respir Dis 1988 137, 548-557. The respiratory function was determined before the antigen challenge (before drug administration) and 5 minutes and 1, 2, 3, 4, 5, 6, 7 and 8 hours after the antigen challenge, and wave profiles were imported using MacLab Chart v3.4 (AD Instruments) and analyzed later. […] The sRaw/TV values subtracting the former values were plotted against measured times, and each area under the curve (AUC4-8 hr) of each animal was calculated to compare each other in the range of 4 to 8 hours after the antigen challenge. […]

| Binding Activity (%) (1 μM) (rat lung membrane SMBS) | melting point [°C] | SMILES | inhibition at 10 µM [1] [%] | AUC4-8 hr ((sRaw/TV) · h) ([2]; 4 to 8 hours after antigen challenge) | Improvement Rate (%) ([2]; AUC4-8 hr versus control group, p<0.01 Dunnett's test) |
| --- | --- | --- | --- | --- | --- |
| 66 | 191 to 198 | CCNC(=O)NCCn1c(-c2ccc(C(=O)N3CCOCC3)cc2)cs/c1=N\c1cccc(Cl)c1 [Example 59] | 7 | – | – |
| 82 | – | CNC(=O)NCCn1c(-c2ccc(CN3CCOCC3)c(OC)c2)cs/c1=N\c1ccc(F)c(C)c1 [Example 21, N-{2-[(2Z)-2-[(4-Fluoro-3-methylphenyl)imino]-4-[3-methoxy-4-(morpholin-4-ylmethyl)phenyl]-1,3-thiazol-3(2H)-yl]ethyl}-N′-methylurea] | 8 | – | – |
| 62 | 172 to 178 | CCNC(=O)c1ccc(-c2cs/c(=N\c3ccc(F)cc3)n2CCNC(=O)NC)cc1 [Example 61] | 6 | – | – |
| 59 | – | CNC(=O)NCCn1c(-c2ccc(C(=O)N3CCOCC3)cc2)cs/c1=N\c1cccc(F)c1 [Example 52, N-{2-[(2Z)-2-[(3-Fluorophenyl)imino]-4-[4-(morpholin-4-ylcarbonyl)phenyl]-1,3-thiazol-3(2H)-yl]ethyl}-N′-methylurea] | 0 | 0.427 (sRaw/TV) · h | 54 |
| 65 | 180 to 188 | CCNC(=O)c1ccc(-c2cs/c(=N\c3ccc(F)c(F)c3)n2CCNC(=O)NC)cc1 [Example 62] | 2 | – | – |
| 88 | – | CNC(=O)NCCn1c(-c2ccc(CN3CCOCC3)cc2C)cs/c1=N\c1ccc(F)c(C)c1 [Example 18, N-{2-[(2Z)-2-[(4-Fluoro-3-methylphenyl)imino]-4-[2-methyl-4-(morpholin-4-ylmethyl)phenyl]-1,3-thiazol-3(2H)-yl]ethyl}-N′-methylurea] | 28 | – | – |
